The values that follow come from US7326734B2, “Treatment of bladder and urinary tract cancers” (The Regents of the University of California, priority 2003, dated 2008).

Data set [1] deals with T24 bladder cancer cells. The data set is described as follows: antiproliferative activity against T24 (Grade 3, non-metastatic) bladder cancer cells in vitro. It counts as cell-based. To be noted: for Percentage of inhibition related to control (%) / inhibition at 25 µg/mL / inhibition at 50 µg/mL / inhibition at 100 µM: bladder cancer cells in vitro; for inhibition at 25 µg/mL / inhibition at 50 µg/mL / inhibition at 100 µM: read-out: Percentage of inhibition related to control (%). Here is the method: (§1) Compounds of the present invention were tested for antiproliferative activity against RT24 (Grade I) and T24 (Grade3, non-metastatic) bladder cancer cells in vitro, in accordance with well known standard technique as diagramed in FIG. 5.

The test system of data set [2] is RT24 (Grade I) bladder cancer cells. Nature of the data set: antiproliferative activity against RT24 (Grade I) bladder cancer cells in vitro. It counts as cell-based. To be noted: FIGS. 1-4. Here is the method:
FIG. 5 is a schematic diagram of the in vitro test for antiproliferative activity referred to in Example 1 below.
as §1

The test system of data set [3] is bladder cancer. To be noted: cited from earlier work.
The subject of data set [4] is advanced transitional cell carcinoma of the urothelium. To be noted: Phase II, with prophylactic G-CSF, cited from earlier work.
Data set [5] relates to human bladder cancer cell lines. To be noted: cited from earlier work.

In the case of 11-Methysticin, in data set [1] (25 μg/ml), the “Percentage of inhibition related to control (%)” value is 52.1%.

Consider `COc1cc(O)cc(O)c1C(=O)CC(O)c1ccccc1` (stereo not shown) [1-(2,4-Dihydorxy-6-methoxy-phenyl-3-hydorxy-3-phenyl-propan-1-one], for which the “Percentage of inhibition related to control (%)” value in data set [1] (25 μg/ml) came out at 42.3%.

Regarding `COc1ccc(/C=C/C(=O)c2c(OC)cc(O)cc2OC)cc1` [4′-hydroxy-4,2′,6′-trimethoxychalcone], the inhibition (as a rule, the relative decrease from the control value, in per cent) at 25 µg/mL in data set [1] (25 μg/ml) amounted to 73.7%.

As to `COc1cc(/C=C/c2ccc(OC)c(OC)c2)oc(=O)c1` [11-Methoxyangonin], the “Percentage of inhibition related to control (%)” value in data set [1] (25 μg/ml) was found to be 26.3%.

As for `COc1ccc2cc3[n+](cc2c1OC)CCc1cc2c(cc1-3)OCO2` [Berberine], the inhibition at 50 µg/mL in data set [1] (50 μg/ml) is 17.9%.

As for `COc1ccc(-c2coc3cc(O)cc(O)c3c2=O)cc1` [Biochanin A], the “Percentage of inhibition related to control (%)” value in data set [1] (25 μg/ml) was determined as 48.7%.

With `CC(=O)OC[C@@]1(O)C[C@@]23CC[C@@H]4c5ccoc5CC[C@@]4(C)[C@@H]2CC[C@@H]1C3` [Cafestol Acetate], the inhibition at 50 µg/mL in data set [1] (50 μg/ml) was determined as 57.6%.

As to `O=c1oc2cc(O)ccc2c2oc3cc(O)ccc3c12` [Coumestrol], in data set [1] (50 μg/ml), the inhibition at 50 µg/mL is 30%.

Take `COc1cc(/C=C/C(=O)CC(=O)/C=C/c2ccc(O)c(OC)c2)ccc1O` [Curcumin]: the inhibition at 50 µg/mL in data set [1] (50 μg/ml) amounted to 69.7%.

For `O=c1c(-c2ccc(O)cc2)coc2cc(O)ccc12` [Daidzein], in data set [1] (50 μg/ml), the inhibition at 50 µg/mL worked out at 39.3%.

In the case of `O=C(O[C@@H]1Cc2c(O)cc(O)cc2O[C@@H]1c1cc(O)c(O)c(O)c1)c1cc(O)c(O)c(O)c1` [EGCG], in data set [1] (25 μg/ml), the “Percentage of inhibition related to control (%)” value came out at 34%.

As for `O=c1oc2c(O)c(O)cc3c(=O)oc4c(O)c(O)cc1c4c23` [Ellagic acid], the inhibition at 100 µM in data set [1] is 66%.

Consider `COc1ccc(/C=C/C(=O)c2c(O)cc(OC)cc2OC)cc1` [Flavokawain A, 2′-hydroxy-4,4′,6′-trimethoxychalcone], for which the “inhibitory effects on proliferation” value in data set [1] (T24 (Grade 3, non-metastatic) cells in vitro, FIGS. 1-4) was “significant inhibitory effects”; in data set [2], “significant inhibitory effects”.

In the case of `Nc1ccn([C@@H]2O[C@H](CO)[C@@H](O)C2(F)F)c(=O)n1` [Gemcitabine], in data set [3] (clinical trials), the median survival entry is on record as “less than 12 months” and the response rate entry is “less than 30%”. For the same molecule, the toxicity result in data set [3] (phase II trials) was “in general mild and reversible”.

On to `O=c1c(-c2ccc(O)cc2)coc2cc(O)cc(O)c12` [Genistein], for which the inhibition at 25 µg/mL in data set [1] (25 μg/ml) came out at 48.7%.

Regarding `O=c1c(O)c(-c2ccc(O)cc2)oc2cc(O)cc(O)c12` [Kaempferol], in data set [1] (50 μg/ml), the inhibition at 50 µg/mL worked out at 60%.

Turning to `C[C@@]12C=Cc3occc3[C@H]1CC[C@@]13C[C@@H](CC[C@H]12)[C@@](O)(CO)C3` [Kahweol], the “Percentage of inhibition related to control (%)” value in data set [1] (50 μg/ml) is 61.2%.

As to `COC1=CC(=O)O[C@@H](/C=C/c2ccccc2)C1` [Kawain], the inhibition at 25 µg/mL in data set [1] (25 μg/ml) was determined as 33.6%.

`O=c1c(O)c(-c2ccc(O)cc2O)oc2cc(O)cc(O)c12` [Morin]: the inhibition at 50 µg/mL in data set [1] (50 μg/ml) came to 34%.

Consider `O=C1C[C@@H](c2ccc(O)cc2)Oc2cc(O)cc(O)c21` [Naringenin], for which the inhibition at 50 µg/mL in data set [1] (50 μg/ml) amounted to 20%.

Consider `C[C@@H]1O[C@@H](O[C@H]2[C@H](Oc3cc(O)c4c(c3)O[C@H](c3ccc(O)cc3)CC4=O)O[C@H](CO)[C@@H](O)[C@@H]2O)[C@H](O)[C@H](O)[C@H]1O` [Naringin], for which, in data set [1] (50 μg/ml), the inhibition at 50 µg/mL was 29%.

For `Oc1cc(O)c2c(c1)O[C@H](c1ccc(O)c(O)c1)[C@H](O)[C@H]2c1c(O)cc(O)c2c1O[C@H](c1ccc(O)c(O)c1)[C@@H](O)C2` [Procyanidin B1], the “Percentage of inhibition related to control (%)” value in data set [1] (25 μg/ml) stood at 44.2%.

For `O=c1c(O)c(-c2ccc(O)c(O)c2)oc2cc(O)cc(O)c12` [Quercetin], the inhibition at 50 µg/mL in data set [1] (50 μg/ml) amounted to 53.3%.

As for `Oc1ccc(C=Cc2cc(O)cc(O)c2)cc1` [Resveratrol], the inhibition at 50 µg/mL in data set [1] (50 μg/ml) came to 70.6%.

As for `O=c1c2ccccc2nc2n1CCc1c-2[nH]c2ccccc12` [Rutaecurpine], the “Percentage of inhibition related to control (%)” value in data set [1] (50 μg/ml) was 76%.

For the molecule `C[C@@H]1O[C@@H](OC[C@H]2O[C@@H](Oc3c(-c4ccc(O)c(O)c4)oc4cc(O)cc(O)c4c3=O)[C@H](O)[C@@H](O)[C@@H]2O)[C@H](O)[C@H](O)[C@H]1O` [Rutin], in data set [1], the inhibition at 100 µM stood at 47.7%.

As for `COc1cc(C2Oc3cc([C@H]4Oc5cc(O)cc(O)c5C(=O)[C@@H]4O)ccc3OC2CO)ccc1O` (stereo partly shown) [Silibinin], the inhibition at 100 µM in data set [1] turned out to be 40%.

In the case of `O=C1c2c(O)cc(O)cc2O[C@H](c2ccc(O)c(O)c2)[C@H]1O` [Taxifolin], in data set [1] (50 μg/ml), the inhibition at 50 µg/mL was determined as 36.7%.

As for `CC(=O)O[C@H]1C(=O)[C@@]2(C)[C@H]([C@H](OC(=O)c3ccccc3)[C@]3(O)C[C@H](OC(=O)[C@H](O)[C@@H](NC(=O)c4ccccc4)c4ccccc4)C(C)=C1C3(C)C)[C@]1(OC(C)=O)CO[C@@H]1C[C@@H]2O` [paclitaxel], the “objective response (response rate)” value in data set [4] (previously untreated patients) is 42%. Further, the toxicities entry in data set [4] is “granulocytopenia, anemia, mucositis, and neuropathy”. For the same molecule, the “activity against human bladder cancer cell lines” value in data set [5] is “significant activity”.
